The source of these data is US11840531B2, “CDK8/19 inhibitors” (JOINT STOCK COMPANY “BIOCAD”, priority 2018, dated 2023).

SMILES strings stand for the structures.

Common to all, as to type: in vitro ADME
The nature of data set [1]: Permeability through Caco-2 cell monolayer. The note with it: human; for Papp A→B at 2 h, 10 μM: Caco-2, A→B, pH 6.5/7.4, 2 hour incubation; for efflux ratio at 2 h, 10 μM: Caco-2, Papp B-A/Papp A-B. The protocol: Estimation of permeability through Caco-2 cell monolayer enables assessment of the ability of the substances to penetrate through biological membranes by means of both active and passive transport.
Intestinal epithelial cells Caco-2 were grown on filter inserts (pore size 0.4 jam, BD Falcon with High Density) for 21 days; monolayer integrity was then checked using Lucifer Yellow (Sigma-Aldrich, USA) according to the standard protocol. In A→B transfer (“intestinal lumen”-“blood stream” transfer), solutions of the test substances in buffer, pH 6.5 (HBSS, 10 mM HEPES, 15 mM glucose) at a concentration of 10 μM were added to the upper chamber; whereas the lower chamber was filled with buffer, pH 7.4 (HBSS, 10 mM HEPES, 15 mM Glucose, 1% BSA). In B→A transfer (“blood stream”-“intestinal lumen” transfer), the upper chamber was filled with buffer, pH 6.5, whereas the solutions of the test substances in buffer, pH 7.4, at a concentration of 10 μM were added to the lower chamber. A highly permeable substance propranolol was used as a control.
After 2 hour incubation at 37° C. under an atmosphere containing 5% CO2, the amounts of the test substances in the upper and lower chambers were measured by HPLC using an Agilent1200 HPLC system (Agilent, USA), proteins were preliminarily precipitated with acetonitrile. Chromatographic analysis was performed in a gradient elution regime with a flow rate of 1 mL/min. The peak areas corresponding to the compounds were detected on chromatograms. Based on the peak areas of a compound in the calibration standards, concentration of the compound in the initial solution and in the samples from upper chamber wells and lower chamber wells was measured.
Cellular permeability coefficient Papp was calculated by the formula: Papp=(Ca(t)*Va)/(Cd(0)*t*Area), where Papp is the effective permeability constant, m/s V is the volume of solution (0.8 ml in A→B test, 0.2 ml in B→A test), ml Area is the membrane surface area (0.33 cm^2), cm^2 t is the time of incubation (7200 sec), sec Cd(0) is the initial solution concentration, μM Ca(t) is the concentration of the solution after 2 hours (the concentration in the sample from the well of the lower chamber in A→B test; the concentration in the sample from the well of the top chamber in B→A test), μM
The value was calculated by the following formula: efflux=Papp B-A/Papp A-B, where Pape A-B-direct A→B test permeability value Papp B-A-reverse B→A test permeability value

Data set [2] in a line: Stability of the compounds in human blood plasma. Particulars: pooled human blood plasma, 10 μM, 4 hours at 37° C. The protocol:
To assess the blood plasma stability of the compounds, we used pooled human blood plasma taken from ten healthy donors. The initial candidate solution (10 mM in DMSO) was diluted with pooled blood plasma to a concentration of 10 μm (test solution). The test solution was incubated in a dry block thermostat for 4 hours at 37° C. HPLC with Agilent 1200 liquid chromatography system (Agilent, USA) was employed to determine peak areas of the compounds in test samples, said peak areas corresponding to the initial test time (prior to incubation) and the final test time (after incubation in a dry block thermostat for 4 hours at 37° C.), proteins were preliminarily precipitated with acetonitrile. Chromatographic analysis was performed in a gradient elution regime with a flow rate of 1 mL/min Substance amount in % in a sample after thermostatting was determined.
The stability of the compounds was estimated. The compounds described herein show at least 90% chemical stability, i.e. they are chemically stable in human blood plasma (Table 2).

The nature of data set [3]: Enzyme stability in human liver S9 fractions (Phase II). The note with it: pH 7.4; 0.5 mg/mL pooled human liver S9 fractions, 10 μM compound, 37° C.; read-out: Enzyme stability Liver S9 fraction CLint. The protocol:
Measuring of enzyme stability of the present compounds enabled estimation of their stability towards the action of Phase II biotransformation enzymes.
Enzyme degradation rate was measured by incubating the reaction mixture in a dry block thermostat at 37° C., said reaction mixture comprising 0.5 mg/mL of pooled human liver S9 fractions (XenoTech, USA, cat #H0610), 10 μM compound, 2 mM β-nicotinamide adenine dinucleotide (Carbosynth, UK, cat #NN10871) and 4 mM magnesium chloride in 0, 1 M sodium-phosphate buffer, pH=7, 4. The reaction was quenched with acetonitrile (100 μL of acetonitrile/100 μL of the reaction mixture). After quenching, the samples were centrifuged at 10000 rpm for 10 minutes. Supernatant fluid was tested by chromatographic technique using Agilent1200 (Agilent, USA). Chromatographic analysis was performed in a gradient elution regime with a flow rate of 1 mL/min A graph of the logarithm of substance's peak area as a function of time was made. The dependent factor of the line corresponded to the elimination rate constant K based on which the drug's half-life T½ and degradation rate CLint were calculated:
Based on the data obtained, candidates' enzyme stability in human liver S9 fractions was determined.

Regarding `COCCn1cc(-c2ccc(-c3cnc(N)c4ncc(C(=O)NCC5CC5)cc34)cc2)cn1` [Compound 3.45, 8-amino-N-(cyclopropylmethyl)-5-(4-(1-(2-methoxyethyl)-1H-pyrazole-4-yl)phenyl)-1,7-naphthyridine-3-carboxamide], in data set [1], the apparent permeability from apical to basolateral (Papp A→B) at 2 h, 10 μM turned out to be 34.5 ×10⁻⁶ cm/s and the efflux ratio at 2 h, 10 μM turned out to be 0.37. Besides, the “Chemical stability in human blood plasma 4 h, %” value in data set [2] is listed as 91.2%. In addition, the microsomal CLint at 10 μM in data set [3] was determined as 1.1 µL/min/mg.
On the same counts, the results for `COCCn1cc(-c2ccc(-c3cnc(N)c4ncc(C(=O)NC5CC5)cc34)cc2)cn1` [Compound 3.48] are 36.2 ×10⁻⁶ cm/s, 0.64, 98.4% and 2.5 µL/min/mg.
On the same counts, the results for `CN(C)C(=O)Cn1cc(-c2ccc(-c3cnc(N)c4ncc(C(=O)N5CCC5)cc34)cc2)cn1` [Compound 3.52, 2-(4-(4-(8-amino-3-(azetidine-1-carbonyl)-1,7-naphthyridine-5-yl)phenyl)-1H-pyrazole-1-yl)-N,N-dimethylacetamide] are 18.7 ×10⁻⁶ cm/s, 1.66, 100.0% and 2.4 µL/min/mg.

By Papp A→B is commonly meant how fast a substance crosses the layer from the apical side. Read a low Papp A→B as poor permeation. What is called efflux ratio is the permeability from basolateral to apical divided by that in the opposite direction, in the common usage.
